According to patent US20240254087A1, “SELECTIVE, PARTIAL, AND ARRESTIN-BIASED 5-HT2A AGONISTS WITH UTILITY IN VARIOUS DISORDERS” (Saint Joseph's University, priority 2021, published 2024):
Where two headings read alike, the source gives them in different places. Starred links: 1 amine or outer side, 2 acyl side, 3 side chain; linkers in the order of their positions; H or OH if unused. Positions of bridges follow the written chain, without caps; N, C: chain ends. Non-standard residues stand in square brackets, D forms with d. Residues, ends and D or L forms follow the SMILES beside them. X1 = CC(=O)NC(C(=O)OC(C(C)C)C(N[*:1])C(=O)[*:2])C(O)C(C)C; PhLac = O=C(O)[CH](O)Cc1ccccc1; NMeT = CN[CH](C(=O)O)[CH](C)O; NMeA = CN[CH](C)C(=O)O; NMeDha = C=C(NC)C(=O)O

What was measured:
male C57BL/6J mice [1] = assay: Head-twitch response (HTR) in mice; type: in vivo, mouse; details: for ED50: Mus musculus
Outline: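 Head twitches in male C57BL/6J mice (6-8 weeks) carrying head-mounted magnets were detected with a magnetometer coil around a 12-cm glass cylinder during the dark phase. Coil signal was low-pass filtered at 2 kHz and digitized at 20 kHz. Counts were analyzed by one-way ANOVA with Dunnett's post hoc test.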

5-HT2A [2] = biological target: T1, 5-HT2A (Homo sapiens, UniProt P28223); assay: NanoLuc internalization assay; type: cell-based; details: 60 min
T1 sequence (P28223 whole entry): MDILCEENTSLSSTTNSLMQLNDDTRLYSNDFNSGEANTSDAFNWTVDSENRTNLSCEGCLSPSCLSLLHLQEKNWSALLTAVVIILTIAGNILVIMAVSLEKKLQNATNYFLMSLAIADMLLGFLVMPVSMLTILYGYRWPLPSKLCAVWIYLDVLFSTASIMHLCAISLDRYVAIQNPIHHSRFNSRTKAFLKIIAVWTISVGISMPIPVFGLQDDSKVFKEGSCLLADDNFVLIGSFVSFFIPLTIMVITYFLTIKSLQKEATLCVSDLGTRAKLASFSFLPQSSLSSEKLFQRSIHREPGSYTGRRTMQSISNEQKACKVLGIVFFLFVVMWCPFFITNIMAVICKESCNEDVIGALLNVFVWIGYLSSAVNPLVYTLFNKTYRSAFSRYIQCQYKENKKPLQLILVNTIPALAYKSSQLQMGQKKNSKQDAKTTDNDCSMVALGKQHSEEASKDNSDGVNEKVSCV

male C57BL/6J mice [3] = assay: Tolerance: DOI-induced HTR after 5 days repeated treatment; type: in vivo, mouse; details: 5 days SC: 25N-N1-Nap 20, DOI 10, pimavanserin 1 mg/kg/day
Protocol: (§1) The mice were allowed to recover from the magnet implantation surgeries for at least 1 week prior to behavioral testing. HTR experiments were conducted in a well-lit room, and the mice were allowed to habituate to the room for at least 1 h prior to testing. Head twitches was assessed in a 12-cm diameter glass cylinder surrounded by a magnetometer coil. Coil voltage was low-pass filtered (2 kHz), amplified, and digitized (20-kHz sampling rate) using a Powerlab/8SP with LabChart v 7.3.2 (ADInstruments, Colorado Springs, CO, USA). […] HTR counts were analyzed using one-way ANOVAs. Dunnett's test was used for post hoc comparisons.

5-HT2A [4] = biological target: T1, 5-HT2A; details: cited from earlier work
5-HT2A [5] = biological target: T1, 5-HT2A; assay: cell-based; design: expressed in transfected cells; host or cells: HEK293T, transient; details: BRET, mean ± SEM; hydrochloride
5-HT2A [6] = biological target: T1, 5-HT2A; assay: cell-based; design: expressed in transfected cells; host or cells: HEK293T, transient
5-HT2B = 5-HT2B (Homo sapiens, UniProt P41595); assay: BRET Gq dissociation, 5-HT2B; type: cell-based; design: expressed in transfected cells; host or cells: HEK293T, transient
Sequence of 5-HT2B (P41595 whole entry): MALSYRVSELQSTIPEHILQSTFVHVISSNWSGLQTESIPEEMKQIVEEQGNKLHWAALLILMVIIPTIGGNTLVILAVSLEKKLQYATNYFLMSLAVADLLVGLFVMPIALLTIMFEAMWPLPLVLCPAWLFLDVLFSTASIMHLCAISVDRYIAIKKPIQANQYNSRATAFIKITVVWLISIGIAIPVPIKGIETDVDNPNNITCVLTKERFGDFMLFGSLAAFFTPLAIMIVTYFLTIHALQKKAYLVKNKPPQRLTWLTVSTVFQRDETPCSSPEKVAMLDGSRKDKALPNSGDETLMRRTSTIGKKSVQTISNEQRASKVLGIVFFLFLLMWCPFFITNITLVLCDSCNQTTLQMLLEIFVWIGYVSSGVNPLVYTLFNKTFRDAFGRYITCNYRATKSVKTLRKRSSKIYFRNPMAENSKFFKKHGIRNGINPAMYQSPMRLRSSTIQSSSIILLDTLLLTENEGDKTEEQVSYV

5-HT2C = biological target: T2, 5-HT2C (Homo sapiens, UniProt P28335); assay: BRET Gq dissociation, 5-HT2C; type: cell-based; design: expressed in transfected cells; host or cells: HEK293T, transient
T2 sequence (P28335 33-458): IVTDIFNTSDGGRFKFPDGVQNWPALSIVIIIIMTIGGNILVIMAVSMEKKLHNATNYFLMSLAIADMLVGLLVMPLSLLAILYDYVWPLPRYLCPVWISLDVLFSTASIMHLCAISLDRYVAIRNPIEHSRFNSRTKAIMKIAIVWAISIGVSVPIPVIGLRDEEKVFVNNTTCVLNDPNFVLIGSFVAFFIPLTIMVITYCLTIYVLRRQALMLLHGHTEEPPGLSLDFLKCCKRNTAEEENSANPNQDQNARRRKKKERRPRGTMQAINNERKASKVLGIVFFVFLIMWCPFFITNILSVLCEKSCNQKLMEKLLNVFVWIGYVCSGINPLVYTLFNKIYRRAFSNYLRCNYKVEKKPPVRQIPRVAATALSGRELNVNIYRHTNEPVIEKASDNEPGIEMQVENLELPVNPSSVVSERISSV

male C57BL/6J mice [7] = assay: Blockade of agonist-induced HTR by pretreatment; type: in vivo, mouse; details: C57BL/6J mice; pretreatment with Gq/11 or phospholipase C inhibitor
Protocol: Vehicle or the NMDA receptor antagonist PCP (5 mg/kg) was injected IP 10 min after SC administration of vehicle or 25N-NB1-Nap (16), and then the mice were placed in the test chambers 10 min later for a 60-min assessment of locomotor activity. (C). […] Mice were treated with vehicle or M100907 (0.03 mg/kg SC) 10 min prior to vehicle or PCP (5 mg/kg IP): animals were placed in the test chambers 10 min after treatment with PCP.
Male C57BL/6J mice (6-8 weeks old) from Jackson Labs (Bar Harbor, ME, USA) were used for the behavioral experiments. The mice were housed on a reversed light-dark cycle (lights on at 1900 h, off at 0700 h) in an AAAC-approved vivarium at the University of California San Diego. Mice were housed up to four per cage in a climate-controlled room and with food and water provided ad libitum except during behavioral testing. Testing was performed between 1000 and 1800 h (during the dark phase of the light-dark cycle). The studies were conducted in accordance with National Institutes Health (NIH) guidelines and were approved by the University of California San Diego Institutional Animal Care and Use Committee.
as §1

COc1cc(CC(C)N)c(OC)cc1I.Cl (racemic) [(±)-DOI, (±)-2,5-dimethoxy-4-iodoamphetamine hydrochloride, reference compound]
Max HTR response during a 30-min assessment (maximum counts ÷ baseline response) (male C57BL/6J mice [1]): 9.9-fold increase | ED50 (male C57BL/6J mice [1]; read-out: HTR ED50 μmol/kg (95% CI), SC, except DOI and 25D-NBOMe IP): 0.8 µmol/kg | ED50 (male C57BL/6J mice [1]; read-out: HTR ED50 mg/kg (95% CI), SC, except DOI and 25D-NBOMe IP): 0.29 mg/kg | Internalization of 5-HT2A receptors (5-HT2A [2]): strong internalization | Ability of DOI (1 mg/kg IP) to induce the HTR after repeated daily treatment (male C57BL/6J mice [3]): reduced significantly | Emax in a 5-HT2A-Gq calcium flux assay (5-HT2A [4]): 81.3% | 5-HT2A Gq Emax (% 5-HT) (5-HT2A [5]): 108.2 ± 4.2 % 5-HT | Emax (5-HT2A [6]; read-out: 5-HT2A β-arrestin Emax (% 5-HT), BRET, mean ± SEM): 88.8 ± 1.9% | EC50 (5-HT2B): 12.6 nM | Emax (5-HT2B; read-out: 5-HT2B Gq Dissociation (BRET) EMAX ± SEM (%5-HT)): 103 ± 2.8% | EC50 (5-HT2C): 0.832 nM | Emax (5-HT2C; read-out: 5-HT2C Gq Dissociation (BRET) EMAX ± SEM (%5-HT)): 114 ± 3.4%

CCN(CC)C(=O)[C@@H]1C=C2c3cccc4[nH]cc(c34)C[C@H]2N(C)C1 [LSD, reference compound]
Emax in a 5-HT2A-Gq calcium flux assay (5-HT2A [4]): 84.6% | 5-HT2A β-arrestin Emax (% 5-HT) (5-HT2A [6]; BRET, mean ± SEM): 85 ± 3 % 5-HT

CC(C)COc1ccc(CNC(=O)N(Cc2ccc(F)cc2)C2CCN(C)CC2)cc1 [Pimavanserin]
Ability of DOI (1 mg/kg IP) to induce the HTR after repeated daily treatment (male C57BL/6J mice [3]): not altered

C=C1C(=O)NC(C)C(=O)N(C)C(C)C(=O)NC(C(OC(=O)C(NC(C)=O)C(O)C(C)C)C(C)C)C(=O)N(C)C(C(C)OC)C(=O)OC(C)C(NC(C)=O)C(=O)OC(Cc2ccccc2)C(=O)N1C (stereo not shown) [YM-254,890, reference compound] (Ac-T[PhLac][NMeDha]A[NMeA][X1][NMeT](Me); ester 1-C; configuration not given here)
Blockade of the HTR induced by (+/−)-DOI and 25N-NBOMe (male C57BL/6J mice [7]): blocked
